Measurements taken from patent US20070128217A1 (priority 2003, published 2007).

Columns and labels:
[1] = system: antibodies in sera from SARS patients (sera 1a, 1b, 2, 6, 37, 62, London, SARS-yellow, SARS-green); assay type: binding, human; set-up: Binding of serum 6 to linear peptides of protein X1 of SARS-CoV Urbani / Binding of serum 37 to linear peptides of protein X1 of SARS-CoV Urbani / Binding of serum 6 to looped/cyclic peptide (PEPSCAN-ELISA) / Binding of serum 37 to looped/cyclic peptide (PEPSCAN-ELISA) / Binding of serum 37 to looped/cyclic peptides of protein X1 of SARS-CoV Urbani / Binding of serum 6 to linear peptides of protein X2 / Binding of serum 37 to linear peptides of protein X2 / Binding of serum 37 to looped/cyclic peptides of protein X2 of SARS-CoV Urbani / Binding of serum 6 to linear peptides of protein M of SARS-CoV Urbani / Binding of serum 37 to linear peptides of protein M of SARS-CoV Urbani / Binding of serum 6 to looped/cyclic peptides of protein M of SARS-CoV Urbani / Binding of serum 37 to looped/cyclic peptides of protein M of SARS-CoV Urbani / Binding of serum 6 to linear peptides of protein X3 of SARS-CoV Urbani / Binding of serum 37 to linear peptides of protein X3 of SARS-CoV Urbani / Binding of serum 37 to looped/cyclic peptides of protein X3 of SARS-CoV Urbani / Binding of serum 6 to linear peptides of protein X4 of SARS-CoV Urbani / Binding of serum 37 to linear peptides of protein X4 of SARS-CoV Urbani / Binding of serum 37 to looped/cyclic peptides of protein X4 of SARS-CoV Urbani / Binding of serum 6 to linear peptides of protein X5 of SARS-CoV Urbani / Binding of serum 37 to linear peptides of protein X5 of SARS-CoV Urbani / Binding of serum 37 to looped/cyclic peptides of protein X5 of SARS-CoV Urbani / Binding of serum 6 to linear peptides of protein N of SARS-CoV Urbani / Binding of serum 37 to linear peptides of protein N of SARS-CoV Urbani / Binding of serum 6 to linear peptide (PEPSCAN-ELISA) / Binding of serum 1a to looped/cyclic peptides of protein N of SARS-CoV Urbani / Binding of serum 1b to looped/cyclic peptides of protein N of SARS-CoV Urbani / Binding of serum 2 to looped/cyclic peptides of protein N of SARS-CoV Urbani / Binding of serum 6 to looped/cyclic peptides of protein N of SARS-CoV Urbani / Binding of serum 37 to looped/cyclic peptides of protein N of SARS-CoV Urbani / Binding of serum 62 to looped/cyclic peptides of protein N of SARS-CoV Urbani / Binding of serum London to looped/cyclic peptides of protein N of SARS-CoV Urbani / Binding of serum SARS-green to looped/cyclic peptides of protein N of SARS-CoV Urbani: unit not given here
[2] = system: control sera (pooled serum of ten healthy LUMC hospital workers; commercial negative donor pooled serum from the Dutch bloodbank); assay type: binding, human; set-up: Binding of Control serum LUMC to linear peptides / Binding of Control serum Blood-bank to linear peptides / Binding of Control serum LUMC to looped peptides / Binding of Control Serum Blood-Bank to Looped peptides / Binding of Control serum LUMC to linear peptides of the protein M of SARS-CoV Urbani / Binding of Control serum Blood-bank to linear peptides of the protein M of SARS-CoV Urbani / Binding of Control serum LUMC to looped peptides of the protein M of SARS-CoV Urbani / Binding of Control Serum Blood-Bank to Looped peptides of the protein M of SARS-CoV Urbani: unit not given here
[3] = system: rabbit serum obtained by immunizing a rabbit with the SARS-CoV strain Frankfurt 1; assay type: binding; set-up: Binding of a rabbit serum to linear peptides / Binding of a rabbit serum to looped peptides / Rabbit serum linear peptides / Rabbit serum looped peptides / Binding of a rabbit serum to linear peptides of protein N of SARS-CoV Urbani (Rabbit serum linear peptides) / Binding of a rabbit serum to looped/cyclic peptides of protein N of SARS-CoV Urbani (Rabbit serum looped peptides): unit not given here

AWLCALGKVLPFHRW
Binding of serum 1a to linear peptides of protein X5 of SARS-CoV Urbani [1]: 0.8 | Binding of serum 1a to looped/cyclic peptides of protein X5 of SARS-CoV Urbani [1]: 0.4 | Binding of serum 1b to linear peptides of protein X5 of SARS-CoV Urbani [1]: 0.6 | Binding of serum 1b to looped/cyclic peptides of protein X5 of SARS-CoV Urbani [1]: 0.3 | Binding of serum 2 to linear peptides of protein X5 of SARS-CoV Urbani [1]: 0.8 | Binding of serum 2 to looped/cyclic peptides of protein X5 of SARS-CoV Urbani [1]: 0.5 | Binding of serum 6 to linear peptides of protein X5 of SARS-CoV Urbani [1]: 0.6 | Binding of serum 6 to looped/cyclic peptides of protein X5 of SARS-CoV Urbani [1]: 0.4 | Binding of serum 37 to linear peptides of protein X5 of SARS-CoV Urbani [1]: 0.8 | Binding of serum 37 to looped/cyclic peptides of protein X5 of SARS-CoV Urbani [1]: 0.5 | Binding of serum 62 to linear peptides of protein X5 of SARS-CoV Urbani [1]: 0.9 | Binding of serum 62 to looped/cyclic peptides of protein X5 of SARS-CoV Urbani [1]: 0.7 | Binding of serum London to linear peptides of protein X5 of SARS-CoV Urbani [1]: 0.8 | Binding of serum London to looped/cyclic peptides of protein X5 of SARS-CoV Urbani [1]: 0.2 | Binding of serum SARS-green to linear peptides of protein X5 of SARS-CoV Urbani [1]: 0.6 | Binding of serum SARS-green to looped/cyclic peptides of protein X5 of SARS-CoV Urbani [1]: 0.5 | Binding of serum SARS-yellow to linear peptides of protein X5 of SARS-CoV Urbani [1]: 0.2 | Binding of serum SARS-yellow to looped/cyclic peptides of protein X5 of SARS-CoV Urbani [1]: 0.5 | Binding of Control Serum Blood-Bank to Looped peptides [2]: 0.4 | Binding of Control serum Blood-bank to linear peptides [2]: 0.9 | Binding of Control serum LUMC to linear peptides [2]: 0.6 | Binding of Control serum LUMC to looped peptides [2]: 0.5 | Rabbit serum linear peptides [3]: 0.8 | Rabbit serum looped peptides [3]: 0.6

AYNRYRIGNYKLNTD
Binding of serum 1a to linear peptides of protein M of SARS-CoV Urbani [1]: 0.7 | Binding of serum 1a to looped/cyclic peptides of protein M of SARS-CoV Urbani [1]: 0.8 | Binding of serum 1b to linear peptides of protein M of SARS-CoV Urbani [1]: 0.2 | Binding of serum 1b to looped/cyclic peptides of protein M of SARS-CoV Urbani [1]: 0.7 | Binding of serum 2 to linear peptides of protein M of SARS-CoV Urbani [1]: 0.3 | Binding of serum 2 to looped/cyclic peptides of protein M of SARS-CoV Urbani [1]: 0.5 | Binding of serum 6 to linear peptides of protein M of SARS-CoV Urbani [1]: 0.4 | Binding of serum 6 to looped/cyclic peptides of protein M of SARS-CoV Urbani [1]: 1.0 | Binding of serum 37 to linear peptides of protein M of SARS-CoV Urbani [1]: 0.5 | Binding of serum 37 to looped/cyclic peptides of protein M of SARS-CoV Urbani [1]: 0.6 | Binding of serum 62 to linear peptides of protein M of SARS-CoV Urbani [1]: 0.7 | Binding of serum 62 to looped/cyclic peptides of protein M of SARS-CoV Urbani [1]: 0.6 | Binding of serum London to linear peptides of protein M of SARS-CoV Urbani [1]: 0.5 | Binding of serum London to looped/cyclic peptides of protein M of SARS-CoV Urbani [1]: 0.4 | Binding of serum SARS-green to linear peptides of protein M of SARS-CoV Urbani [1]: 0.2 | Binding of serum SARS-green to looped/cyclic peptides of protein M of SARS-CoV Urbani [1]: 0.2 | Binding of serum SARS-yellow to linear peptides of protein M of SARS-CoV Urbani [1]: 0.0 | Binding of serum SARS-yellow to looped/cyclic peptides of protein M of SARS-CoV Urbani [1]: 0.6 | Binding of Control Serum Blood-Bank to Looped peptides of the protein M of SARS-CoV Urbani [2]: 0.6 | Binding of Control serum Blood-bank to linear peptides of the protein M of SARS-CoV Urbani [2]: 0.6 | Binding of Control serum LUMC to linear peptides of the protein M of SARS-CoV Urbani [2]: 0.3 | Binding of Control serum LUMC to looped peptides of the protein M of SARS-CoV Urbani [2]: 0.7 | Rabbit serum linear peptides [3]: 0.3 | Rabbit serum looped peptides [3]: 0.3

AYSNRNRFLYIIKLV
Binding of serum 1a to linear peptides of protein M of SARS-CoV Urbani [1]: 0.7 | Binding of serum 1b to linear peptides of protein M of SARS-CoV Urbani [1]: 0.6 | Binding of serum 2 to linear peptides of protein M of SARS-CoV Urbani [1]: 0.6 | Binding of serum 6 to linear peptides of protein M of SARS-CoV Urbani [1]: 0.6 | Binding of serum 37 to linear peptides of protein M of SARS-CoV Urbani [1]: 0.4 | Binding of serum 62 to linear peptides of protein M of SARS-CoV Urbani [1]: 0.5 | Binding of serum London to linear peptides of protein M of SARS-CoV Urbani [1]: 0.3 | Binding of serum SARS-green to linear peptides of protein M of SARS-CoV Urbani [1]: 0.5 | Binding of serum SARS-yellow to linear peptides of protein M of SARS-CoV Urbani [1]: 0.2 | Recognition of the peptide by sera of SARS-CoV infected individuals, and form (linear, looped/cyclic) in which it is recognized [1]: recognized in looped/cyclic form | Binding of Control Serum Blood-Bank to Looped peptides of the protein M of SARS-CoV Urbani [2]: 0.6 | Binding of Control serum Blood-bank to linear peptides of the protein M of SARS-CoV Urbani [2]: 0.7 | Binding of Control serum LUMC to linear peptides of the protein M of SARS-CoV Urbani [2]: 0.7 | Binding of Control serum LUMC to looped peptides of the protein M of SARS-CoV Urbani [2]: 0.8 | Rabbit serum linear peptides [3]: 0.3 | Rabbit serum looped peptides [3]: 0.5

CALGKVLPFHRWHTM
Binding of serum 1a to linear peptides of protein X5 of SARS-CoV Urbani [1]: 0.7 | Binding of serum 1a to looped/cyclic peptides of protein X5 of SARS-CoV Urbani [1]: 0.4 | Binding of serum 1b to linear peptides of protein X5 of SARS-CoV Urbani [1]: 0.5 | Binding of serum 1b to looped/cyclic peptides of protein X5 of SARS-CoV Urbani [1]: 0.2 | Binding of serum 2 to linear peptides of protein X5 of SARS-CoV Urbani [1]: 0.7 | Binding of serum 2 to looped/cyclic peptides of protein X5 of SARS-CoV Urbani [1]: 0.6 | Binding of serum 6 to linear peptides of protein X5 of SARS-CoV Urbani [1]: 0.7 | Binding of serum 6 to looped/cyclic peptides of protein X5 of SARS-CoV Urbani [1]: 0.4 | Binding of serum 37 to linear peptides of protein X5 of SARS-CoV Urbani [1]: 0.8 | Binding of serum 37 to looped/cyclic peptides of protein X5 of SARS-CoV Urbani [1]: 0.5 | Binding of serum 62 to linear peptides of protein X5 of SARS-CoV Urbani [1]: 0.7 | Binding of serum 62 to looped/cyclic peptides of protein X5 of SARS-CoV Urbani [1]: 0.3 | Binding of serum London to linear peptides of protein X5 of SARS-CoV Urbani [1]: 0.7 | Binding of serum London to looped/cyclic peptides of protein X5 of SARS-CoV Urbani [1]: 0.2 | Binding of serum SARS-green to linear peptides of protein X5 of SARS-CoV Urbani [1]: 0.7 | Binding of serum SARS-green to looped/cyclic peptides of protein X5 of SARS-CoV Urbani [1]: 0.4 | Binding of serum SARS-yellow to linear peptides of protein X5 of SARS-CoV Urbani [1]: 0.1 | Binding of serum SARS-yellow to looped/cyclic peptides of protein X5 of SARS-CoV Urbani [1]: 0.4 | Binding of Control Serum Blood-Bank to Looped peptides [2]: 0.4 | Binding of Control serum Blood-bank to linear peptides [2]: 0.8 | Binding of Control serum LUMC to linear peptides [2]: 0.7 | Binding of Control serum LUMC to looped peptides [2]: 0.6 | Rabbit serum linear peptides [3]: 0.6 | Rabbit serum looped peptides [3]: 1.0
